Assay results taken from patent US20220091128A1, “SYSTEM AND METHOD FOR LIGAND THERMAL ANALYSIS” (Portland State University, priority 2019, published 2022).

Assays:
Format in all cases: binding
biotinylated HSA (HSAB) = biotinylated HSA (HSAB) (Homo sapiens, UniProt P02768); experiment: DSC thermograms of biotinylated HSA (HSAB) with ligands; conditions: HSAB, measured versus calculated composite curves (FIG. 23)
HSA = HSA (Homo sapiens, UniProt P02768); experiment: Capture of DNA from plasma with biotinylated HSA capture reagent, gel electrophoresis; set-up: purchased Sigma Aldrich (HSA); biotinylated in house (Thermo Fisher Scientific 21217); Pierce streptavidin magnetic beads (Thermo Scientific 88816); conditions: salt washes
Procedure: Gel electrophoresis: DNA samples collected at different steps of the capture procedure were analyzed by electrophoresis on polyacrylamide gels. All electrophoresis experiments were performed using Lonza PAGEr™ Gold Precast Gels: Gradient, 10×10 cm, 8-16%, purchased from Thermo-Fisher (BMA59519). Each supernatant fraction collected at different steps of the capture procedure were suspended in TAE running buffer and analyzed. In a typical experiment, 25 μL total volume of solution was loaded per lane (well capacity). Gels were run in TAE buffer (40 mM Tris, 20 mM Acetic Acid, 0.4 mM EDTA) at a constant current of 20 mA for approximately three hours. Gels for analysis of DNA were stained with Stains-all solution, destained in water, removed, visualized and imaged on a flat-bed scanner. Gels for analysis of hot labeled cy5′-25MER DNA were visualized using a Typhoon™ Trio+phosphorimager (GE Healthcare).
Capture strategy: In some examples, biotinylated HSA acts as an affinity reagent for ligands in plasma that bind HSA. In the capture step, streptavidin coated magnetic beads are attached to biotinylated HSA then inserted into plasma. With application of a magnetic field, ligand-bound biotinylated HSA is retrieved. Captured HSA contains bound plasma components (ligands).
Ligand recovery: In the capture process, HSA-bound components are washed off the capture reagent. […]

human plasma = experiment: DSC thermograms of plasma with ligand; conditions: plasma, measured versus calculated composite curves (FIG. 22)

HSA, sequence (P02768 25-609): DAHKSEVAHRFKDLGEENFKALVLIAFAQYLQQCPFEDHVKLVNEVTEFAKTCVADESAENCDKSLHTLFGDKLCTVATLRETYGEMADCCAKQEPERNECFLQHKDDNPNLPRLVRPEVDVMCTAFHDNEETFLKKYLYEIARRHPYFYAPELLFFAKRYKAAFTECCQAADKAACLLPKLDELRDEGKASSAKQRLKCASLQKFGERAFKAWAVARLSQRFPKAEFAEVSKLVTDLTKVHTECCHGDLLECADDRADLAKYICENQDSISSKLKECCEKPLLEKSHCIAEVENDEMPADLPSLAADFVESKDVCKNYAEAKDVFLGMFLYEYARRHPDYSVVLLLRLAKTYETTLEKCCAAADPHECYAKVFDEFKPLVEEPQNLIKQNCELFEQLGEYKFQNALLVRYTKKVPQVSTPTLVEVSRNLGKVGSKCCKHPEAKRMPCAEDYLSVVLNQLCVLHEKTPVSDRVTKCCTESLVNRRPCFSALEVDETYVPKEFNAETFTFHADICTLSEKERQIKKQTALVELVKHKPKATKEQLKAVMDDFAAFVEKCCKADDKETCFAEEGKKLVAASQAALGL
biotinylated HSA (HSAB), sequence (P02768 25-609): as above

In the case of “ssDNA: 25-base single strand DNA 25R, 5′-CGACATGACCTTGTCGCTAACATCC-3′ (DNA CGACATGACCTTGTCGCTAACATCC; DNA, backbone and methylation of C not given here)”, the “interaction judged by effect on the thermogram” value (biotinylated HSA (HSAB)) is reported as “interact very weakly”, the “binding to HSA by gel analysis” value (HSA) is reported as “detectable, but weak” and the “interaction judged by effect on the thermogram” value (human plasma) is reported as “interact very weakly”.
